Among the data in patent publication US20110319432A1 (priority 2009, published 2011) are Observed efficacy values, retold here.

Like-named read-outs stand apart in the source and are kept apart here.

The subject of the assay is Phytophthora infestans. In kind it is cell-based. To be noted: MTP, absorption 405 nm, 7 days after inoculation, 18° C.

For the molecule `CCCCCCCCc1c(CC)nc2ncnn2c1N` [5-Ethyl-6-octyl-[1,2,4]triazolo[1,5-a]pyrimidin-7-ylamine], under “0.25 ppm”, the Observed efficacy is listed as 31%.

On to `O=C(NCCc1ncc(C(F)(F)F)cc1Cl)c1ccccc1C(F)(F)F` [Fluopyram], for which the Observed efficacy is given as 5% (0.016 ppm) and 5% (0.063 ppm).
